Laboratory results taken from PubChem BioAssay (NCI).
Several values for one entry are separate records, joined by “and”; a condition that tells them apart may be missing. Identical values can stand only once.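 Each compound was tested at five concentrations against cells in 96-well plates for 48 hours. GI50: concentration for 50% inhibition of growth. Definition used: TGI = concentration required for complete inhibition of growth.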

Experiments:
Assay in all cases: NCI tumour cell line growth inhibition, 48 h
[1] = tested on: 786-0 renal
[2] = tested on: BT-549 breast
[3] = tested on: HS 578T breast
[4] = tested on: DU-145 prostate
[5] = tested on: T-47D breast
[6] = tested on: HOP-18 NSCLC
[7] = tested on: SR leukemia
[8] = tested on: TK-10 renal
[9] = tested on: ACHN renal
[10] = tested on: MDA-N
[11] = tested on: M14 melanoma
[12] = tested on: MDA-MB-435
[13] = tested on: P388/ADR leukemia
[14] = tested on: PC-3 prostate
[15] = tested on: EKVX NSCLC
[16] = tested on: M19-MEL melanoma
[17] = tested on: OVCAR-4 ovarian
[18] = tested on: SK-OV-3 ovarian
[19] = tested on: COLO 205 colon
[20] = tested on: SW-620 colon
[21] = tested on: HCC-2998 colon
[22] = tested on: DMS 273 small cell lung
[23] = tested on: IGROV1 ovarian
[24] = tested on: SK-MEL-5 melanoma
[25] = tested on: SNB-75 CNS
[26] = tested on: KM12 colon
[27] = tested on: KM20L2 colon
[28] = tested on: OVCAR-8 ovarian
[29] = tested on: NCI-H23 lung
[30] = tested on: NCI-H522 lung
[31] = tested on: MALME-3M melanoma
[32] = tested on: SN12C renal
[33] = tested on: UACC-62 melanoma
[34] = tested on: HT29 colon
[35] = tested on: RPMI-8226 leukemia
[36] = tested on: CCRF-CEM leukemia
[37] = tested on: UACC-257 melanoma
[38] = tested on: HOP-92 NSCLC
[39] = tested on: K-562 leukemia
[40] = tested on: HCT-116 colon
[41] = tested on: SK-MEL-28 melanoma
[42] = tested on: SN12K1 renal
[43] = tested on: MOLT-4 leukemia
[44] = tested on: CAKI-1 renal
[45] = tested on: XF 498 CNS
[46] = tested on: A549 NSCLC
[47] = tested on: U251 CNS
[48] = tested on: UO-31 renal
[49] = tested on: A498 renal
[50] = tested on: NCI/ADR-RES ovarian
[51] = tested on: NCI-H460 lung
[52] = tested on: HCT-15 colon
[53] = tested on: SNB-78 CNS
[54] = tested on: OVCAR-5 ovarian
[55] = tested on: SF-539 CNS
[56] = tested on: OVCAR-3 ovarian
[57] = tested on: LOX IMVI melanoma
[58] = tested on: SF-295 CNS
[59] = tested on: RXF 393 renal
[60] = tested on: SK-MEL-2 melanoma
[61] = tested on: DLD-1 colon
[62] = tested on: NCI-H226 lung
[63] = tested on: SNB-19 CNS
[64] = tested on: HOP-62 NSCLC
[65] = tested on: MCF7 breast
[66] = tested on: SF-268 CNS

How did the GI50 [1] turn out when COc1cc2cc(c1Cl)N(C)C(=O)C[C@H](OC(=O)[C@H](C)N(C)C(C)=O)[C@]1(C)O[C@H]1[C@H](C)[C@@H]1C[C@@](O)(NC(=O)O1)[C@H](OC)C=C/C=C(\C)C2 was run?
Its GI50 is 0.0019 µM.

And the GI50 [2]?
The GI50 was 0.000623 µM.

And the GI50 [3]?
Its GI50 is 0.000745 µM.

What about the GI50 [4] of the same compound?
The GI50 was 0.0553 µM.

And the GI50 [5]?
The GI50 was 0.0142 µM.

What about the TGI [5] of the same compound?
The TGI was 0.0714 µM.

And the TGI [6]?
Its TGI is > 95.6 µM and 239 µM.

What about the GI50 [7] of the same compound?
Its GI50 is 0.000336 µM.

What about the TGI [7] of the same compound?
The TGI was 0.0106 µM.

What about the GI50 [8] of the same compound?
The GI50 was 0.0144 µM.

What about the TGI [8] of the same compound?
The TGI was 0.0804 µM.

And the GI50 [9]?
Its GI50 is 0.00211 µM.

And the TGI [9]?
The TGI was 0.0595 µM.

And the TGI [10]?
The TGI was 0.0709 µM and 0.0274 µM.

What about the GI50 [11] of the same compound?
Its GI50 is 0.00128 µM.

What about the GI50 [12] of the same compound?
Its GI50 is 0.00168 µM.

And the TGI [12]?
Its TGI is 0.00755 µM and < 0.0146 µM.

And the TGI [13]?
Its TGI is 1.87 µM and 9.07 µM.

What about the GI50 [14] of the same compound?
Its GI50 is 0.0371 µM.

For CCCCS(=O)(=O)Nc1ccc(Nc2c3ccccc3nc3ccccc23)c(OC)c1, which TGI [15] is on record?
Its TGI is 14.4 µM.

And the TGI [16]?
The TGI was 19.6 µM.

And the TGI [17]?
Its TGI is 18.8 µM.

What about the TGI [18] of the same compound?
Its TGI is 16.9 µM.

And the TGI [19]?
Its TGI is 20.2 µM.

And the TGI [20]?
Its TGI is 14.2 µM.

And the TGI [21]?
The TGI was 16.7 µM.

And the TGI [22]?
Its TGI is 3.37 µM.

What about the TGI [23] of the same compound?
Its TGI is 24.9 µM.

What about the TGI [24] of the same compound?
The TGI was 18.1 µM.

And the TGI [25]?
Its TGI is 7.69 µM.

What about the TGI [26] of the same compound?
Its TGI is 14.8 µM.

What about the TGI [27] of the same compound?
The TGI was 11.9 µM.

What about the TGI [28] of the same compound?
Its TGI is 13.3 µM.

What about the TGI [29] of the same compound?
Its TGI is 11.3 µM.

And the TGI [30]?
The TGI was 18.7 µM.

And the TGI [31]?
Its TGI is 7.99 µM.

What about the TGI [32] of the same compound?
The TGI was 5.77 µM.

What about the TGI [33] of the same compound?
The TGI was 7.48 µM.

What about the TGI [34] of the same compound?
The TGI was 6.37 µM.

And the TGI [35]?
The TGI was > 21.4 µM.

And the TGI [36]?
The TGI was 6.26 µM.

And the TGI [6]?
The TGI was 19.8 µM.

What about the TGI [37] of the same compound?
Its TGI is 18.6 µM.

And the TGI [38]?
Its TGI is 9.08 µM.

What about the TGI [39] of the same compound?
Its TGI is 16.5 µM.

What about the TGI [40] of the same compound?
The TGI was 8.11 µM.

What about the TGI [41] of the same compound?
The TGI was 16.4 µM.

And the TGI [42]?
Its TGI is 3.55 µM.

What about the TGI [43] of the same compound?
The TGI was 3.97 µM.

And the TGI [44]?
Its TGI is 10.1 µM.

And the TGI [45]?
The TGI was 10.5 µM.

And the TGI [46]?
Its TGI is 7.07 µM.

What about the TGI [47] of the same compound?
The TGI was 5.85 µM.

What about the TGI [48] of the same compound?
The TGI was 10.2 µM.

What about the TGI [49] of the same compound?
The TGI was 9.85 µM.

And the TGI [50]?
The TGI was 22 µM.

What about the TGI [51] of the same compound?
Its TGI is 5.79 µM.

And the TGI [52]?
Its TGI is 9.11 µM.

What about the TGI [53] of the same compound?
The TGI was 18.9 µM.

What about the TGI [54] of the same compound?
Its TGI is 26.6 µM.

What about the TGI [55] of the same compound?
The TGI was 5.98 µM.

And the TGI [56]?
Its TGI is 16.3 µM.

And the TGI [57]?
Its TGI is 3.85 µM.

And the TGI [13]?
The TGI was 2.88 µM.

And the TGI [58]?
The TGI was 9.84 µM.

What about the TGI [59] of the same compound?
Its TGI is 11 µM.

What about the TGI [60] of the same compound?
The TGI was 30.9 µM.

What about the TGI [61] of the same compound?
Its TGI is 24.4 µM.

And the TGI [62]?
Its TGI is 16.9 µM.

And the TGI [63]?
The TGI was 14.5 µM.

And the TGI [64]?
The TGI was 10.7 µM.

What about the TGI [65] of the same compound?
Its TGI is 17.4 µM.

And the TGI [66]?
The TGI was 14.5 µM.
